Experimental data: PubChem BioAssay (NCI)
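GI50: concentration for 50% inhibition of growth. TGI is the concentration that stops growth completely.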

How the values were obtained:
Experiment in all cases: NCI anticancer screen, dose series, 384-well format
[1] = system: SF-295 CNS
[2] = system: DU-145 prostate
[3] = system: SF-268 CNS
[4] = system: COLO 205 colon
[5] = system: MDA-MB-231 breast
[6] = system: UACC-257 melanoma
[7] = system: KM12 colon
[8] = system: SF-539 CNS
[9] = system: SNB-19 CNS
[10] = system: RXF 393 renal
[11] = system: M14 melanoma
[12] = system: NCI/ADR-RES ovarian
[13] = system: PC-3 prostate
[14] = system: MOLT-4 leukemia
[15] = system: RPMI-8226 leukemia
[16] = system: HT29 colon
[17] = system: HCC-2998 colon
[18] = system: HS 578T breast
[19] = system: U251 glioblastoma
[20] = system: UACC-62 melanoma
[21] = system: MDA-MB-468 breast
[22] = system: NCI-H460 NSCLC
[23] = system: NCI-H522 lung
[24] = system: HCT-15 colon
[25] = system: SK-MEL-5 melanoma
[26] = system: SW-620 colon
[27] = system: T-47D breast
[28] = system: MCF7 breast
[29] = system: A549 NSCLC

## COc1cccc(Nc2ncnn3ccc(CN4CC[C@@H](N)[C@H](O)C4)c23)c1
[1]
  GI50: 13.9 µM
  TGI: 30.9 µM
[2]
  GI50: 1.11 µM
  TGI: 28.4 µM
[3]
  GI50: 4.4 µM
  TGI: 70.3 µM
[4]
  GI50: 14.8 µM
  TGI: 28.2 µM
[5]
  GI50: 1.99 µM
  TGI: 25.4 µM
[6]
  GI50: 11.3 µM
  TGI: 23.5 µM
[7]
  GI50: 3.54 µM
  TGI: 15.7 µM
[8]
  GI50: 1.55 µM
  TGI: 13.1 µM
[9]
  GI50: 15.4 µM
  TGI: 83.6 µM
[10]
  GI50: 0.435 µM
  TGI: 3.21 µM
[11]
  GI50: 19 µM
  TGI: 33.2 µM
[12]
  GI50: 11.2 µM
  TGI: 27.6 µM
[13]
  GI50: 13.3 µM
  TGI: 87.7 µM
[14]
  GI50: 0.8 µM
  TGI: 13.9 µM
[15]
  GI50: 16.4 µM
  TGI: 30.2 µM
[16]
  GI50: 12.8 µM
  TGI: 26.4 µM
[17]
  GI50: 12.5 µM
  TGI: 25.5 µM
[18]
  GI50: 1.49 µM
  TGI: 6.24 µM
[19]
  GI50: 12.9 µM
  TGI: 26.4 µM
[20]
  GI50: 16.1 µM
  TGI: 29.8 µM
[21]
  GI50: 0.0266 µM
  TGI: 0.203 µM
[22]
  GI50: 11.3 µM
  TGI: 24.3 µM
[23]
  TGI: 9.99 µM
[24]
  GI50: 2.32 µM
  TGI: 32.7 µM
[25]
  GI50: 15.6 µM
  TGI: 29 µM
[26]
  GI50: 17.5 µM
  TGI: 32.5 µM
[27]
  GI50: 15.8 µM
  TGI: 30.2 µM
[28]
  GI50: 13.9 µM
  TGI: 27.4 µM
[29]
  GI50: 0.902 µM
  TGI: 14.4 µM
